Measured values as given in patent publication EP0539170A1, “Benzodiazepine derivatives and their use as antagonists of cholecystokinin and/or gastrin receptors” (priority 1991, dated 1993).

target: T1, CCK Receptor (Pancreas) (Rattus norvegicus, UniProt P30551); assay: CCK Receptor Binding (Pancreas), inhibition of specific 125I-CCK-8 binding; design: species or system Sprague-Dawley rats; conditions: rat whole pancreas membranes; 50 pM 125I-CCK-8; 25°C for 2 hours
T1 construct: The whole pancreas was dissected free of fat tissue and was homogenized; from tissue; host or cells: rat pancreas membrane homogenate
T1 sequence (P30551 1-444): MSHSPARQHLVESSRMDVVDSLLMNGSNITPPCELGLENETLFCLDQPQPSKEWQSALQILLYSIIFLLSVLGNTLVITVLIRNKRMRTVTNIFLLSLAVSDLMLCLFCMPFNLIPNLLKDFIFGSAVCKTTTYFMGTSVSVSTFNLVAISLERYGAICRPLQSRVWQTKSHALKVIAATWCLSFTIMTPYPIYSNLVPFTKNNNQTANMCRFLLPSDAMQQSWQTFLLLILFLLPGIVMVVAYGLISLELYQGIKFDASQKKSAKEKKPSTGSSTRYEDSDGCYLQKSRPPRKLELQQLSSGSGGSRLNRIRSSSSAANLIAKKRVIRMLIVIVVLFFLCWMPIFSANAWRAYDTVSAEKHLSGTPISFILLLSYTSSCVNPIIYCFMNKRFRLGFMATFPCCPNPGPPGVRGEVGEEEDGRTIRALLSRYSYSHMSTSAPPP
How it was run: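 Rat pancreas homogenate (0.5 mg wet weight/ml) incubated 2 h at 25 °C with ¹²⁵I-Bolton Hunter-labelled sulphated CCK-8 in HEPES/EGTA/MgCl₂/NaCl buffer, pH 6.5. Bound ligand separated on GF/C filters and gamma-counted.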

**Q.** With CCCN1C(=O)C(NC(=O)Nc2cccc(C)c2)N=C(N2CCN(C)CC2)c2ccc(N(C)C)cc21 (racemic) [Example 45, N-[3(R,S)-2,3-Dihydro-8-dimethylamino-5-(4-methylpiperazin-1-yl)-2-oxo-1-propyl-1H-1,4-benzodiazepin-3-yl]-N′-[3-methylphenyl] urea] as the compound, how does the IC50 read?
**A.** The IC50 was 956 nM.

**Q.** Which IC50 does the source give for CN1CCN(C2=NC(NC(=O)Nc3cccc(-c4nnnn4C)c3)C(=O)N(C)c3ccccc32)CC1 (racemic) [Example 14, N-[3(R,S)-2,3-Dihydro-1-methyl-2-oxo-5-(4-methylpiperazin-1-yl)-1H-1,4-benzodiazepin-3-yl)-N′-[3-(1-methyltetrazol-5-yl)phenyl] urea] here?
**A.** Its IC50 is > 3000 nM.

**Q.** With CN1CCN(C2=NC(NC(=O)Nc3cccc(-c4nnn(C)n4)c3)C(=O)N(C)c3ccccc32)CC1 (racemic) [Example 13, N-[3(R,S)-2,3-Dihydro-1-methyl-2-oxo-5-(4-methylpiperazin-1-yl)-1H-1,4-benzodiazepin-3-yl]-N′-[3-(2-methyltetrazol-5-yl)phenyl] urea] as the compound, how does the IC50 read?
**A.** Its IC50 is > 3000 nM.

**Q.** Which IC50 does the source give for Cc1cccc(NC(=O)NC2N=C(N3CCNCC3)c3ccccc3N(C)C2=O)c1 (racemic) [Example 9, N-[3(R,S)-2,3-Dihydro-1-methyl-2-oxo-5-(piperazin-1-yl)-1H-1,4-benzodiazepin-3-yl]-N′-[3-methylphenyl] urea] here?
**A.** Its IC50 is > 3000 nM.

**Q.** Cc1cccc(NC(=O)NC2N=C(N3CCCCCCCC3)c3ccccc3N(C)C2=O)c1 (racemic) [Example 61, N-[3(R,S)-2,3-Dihydro-1-methyl-5-(octamethyleneimin-1-yl)-2-oxo-1H-1,4-benzodiazepin-3-yl]-N#MIN#-[3-methylphenyl] urea] was tested. Which IC50 did it give?
**A.** The IC50 was 36.1 nM.
